Data taken from PubChem BioAssay AID248 (DTP/NCI, 2004).
“And” between values parts separate entries of the source, which are not always exact repeats. Equal entries are not always repeated. Inconclusive results and toxic doses are left out. No stated cut-off is given here; in the data, active means T/C of 150% or more; inactive means T/C below 125%.

Tested on: L1210 leukemia ip in BDF1 mice, survival T/C
Assay: NCI In Vivo Anticancer Drug Screen. Data for tumor model L1210 Leukemia (intraperitoneal) in B6D2F1 (BDF1) mice
Details: endpoint: mean survival time, higher = longer survival
Procedure, shortened: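 Ratio derived from survival: compound-dosed mice over vehicle-dosed mice, all bearing a transplantable tumor.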

[1] = dose: 100.0 mg/kg/injection, schedule: Q01DX009 (ip), vehicle: Klucel (hydroxypropylcellulose) (HPC)
[2] = dose: 100.0 mg/kg/injection, schedule: Q04DX003 (ip), vehicle: Klucel (hydroxypropylcellulose) (HPC)
[3] = dose: 100.0 mg/kg/injection, schedule: Q04DX003 (ip), vehicle: saline
[4] = dose: 200.0 mg/kg/injection, schedule: Q01DX009 (ip), vehicle: Klucel (hydroxypropylcellulose) (HPC)
[5] = dose: 200.0 mg/kg/injection, schedule: Q04DX003 (ip), vehicle: Klucel (hydroxypropylcellulose) (HPC)
[6] = dose: 200.0 mg/kg/injection, schedule: Q04DX003 (ip), vehicle: saline
[7] = dose: 400.0 mg/kg/injection, schedule: Q01DX009 (ip), vehicle: Klucel (hydroxypropylcellulose) (HPC)
[8] = dose: 400.0 mg/kg/injection, schedule: Q04DX003 (ip), vehicle: Klucel (hydroxypropylcellulose) (HPC)
[9] = dose: 400.0 mg/kg/injection, schedule: Q04DX003 (ip), vehicle: saline
[10] = dose: 100.0 mg/kg/injection, schedule: Q01DX001 (ip), vehicle: saline
[11] = dose: 200.0 mg/kg/injection, schedule: Q01DX001 (ip), vehicle: saline
[12] = dose: 100.0 mg/kg/injection, schedule: Q01DX001 (ip), vehicle: carboxymethylcellulose (CMC)
[13] = dose: 200.0 mg/kg/injection, schedule: Q01DX001 (ip), vehicle: carboxymethylcellulose (CMC)
[14] = dose: 400.0 mg/kg/injection, schedule: Q01DX001 (ip), vehicle: carboxymethylcellulose (CMC)

Measured: T/C

COC1(OC)C2(Cl)C(Cl)=C(Cl)C1(Cl)C1C(=O)C=CC(=O)C12 (stereo not drawn)
inactive: [1] 104 % of control | [2] 100 % of control | [3] 98 % of control | [4] 96 % of control | [5] 98 % of control | [6] 93 % of control | [7] 98 % of control | [8] 96 % of control | [9] 101 % of control

NC1=Nc2ccccc2CS1
inactive: dose: 18.8 mg/kg/injection, schedule: Q04DX003 (ip), vehicle: saline 95 % of control | dose: 37.5 mg/kg/injection, schedule: Q04DX003 (ip), vehicle: saline 101 % of control

CCN(CC)C(=O)C1C2CCC(C2)C1C(=O)N(CC)CC (stereo not drawn)
inactive: [3] 100 % of control | [6] 100 % of control | [9] 100 % of control

O/N=C(/Cc1ccccc1)CC(O)(C(F)(F)F)C(F)(F)F
inactive: [10] 110 % of control | dose: 100.0 mg/kg/injection, schedule: Q01DX009 (ip), vehicle: saline 95 % of control | [11] 95 % of control | dose: 200.0 mg/kg/injection, schedule: Q01DX009 (ip), vehicle: saline 102 % of control | dose: 400.0 mg/kg/injection, schedule: Q01DX001 (ip), vehicle: saline 89 % of control | dose: 400.0 mg/kg/injection, schedule: Q01DX009 (ip), vehicle: saline 95 % of control

CCCCC1(CC)COC(C)(CCc2ccc(OC)cc2)OC1 (stereo not drawn)
inactive: dose: 100.0 mg/kg/injection, schedule: Q01DX001 (ip), vehicle: acetone 93 % of control | dose: 200.0 mg/kg/injection, schedule: Q01DX001 (ip), vehicle: acetone 93 % of control | dose: 400.0 mg/kg/injection, schedule: Q01DX001 (ip), vehicle: acetone 90 % of control

CSc1ccc(OC(=O)NC2CCCCC2)cc1C
inactive: [1] 92 % of control | [2] 93 % of control | [4] 97 % of control | [5] 111 % of control | [7] 93 % of control | [8] 95 % of control

COc1cccc(CCN)c1
inactive: dose: 50.0 mg/kg/injection, schedule: Q01DX001 (ip), vehicle: saline 116 % of control | [10] 110 % of control | [11] 118 % of control

Cn1c2c(sc1=O)CCC2
inactive: dose: 50.0 mg/kg/injection, schedule: Q01DX Z (ip), vehicle: methylcellulose (MC) 102 % of control and 105 % of control | dose: 100.0 mg/kg/injection, schedule: Q01DX001 (ip), vehicle: other 103 % of control | dose: 100.0 mg/kg/injection, schedule: Q01DX Z (ip), vehicle: methylcellulose (MC) 111 % of control | [2] 99 % of control | dose: 200.0 mg/kg/injection, schedule: Q01DX001 (ip), vehicle: other 111 % of control | dose: 200.0 mg/kg/injection, schedule: Q01DX Z (ip), vehicle: methylcellulose (MC) 93 % of control | [5] 100 % of control | dose: 400.0 mg/kg/injection, schedule: Q01DX001 (ip), vehicle: other 105 % of control

CCOC(=O)c1[nH]nc(CC)c1O
inactive: dose: 50.0 mg/kg/injection, schedule: Q04DX003 (ip), vehicle: gum acacia 110 % of control | dose: 100.0 mg/kg/injection, schedule: Q01DX009 (ip), vehicle: gum acacia 96 % of control | dose: 100.0 mg/kg/injection, schedule: Q04DX003 (ip), vehicle: gum acacia 98 % of control | dose: 200.0 mg/kg/injection, schedule: Q01DX009 (ip), vehicle: gum acacia 92 % of control | dose: 200.0 mg/kg/injection, schedule: Q04DX003 (ip), vehicle: gum acacia 103 % of control | dose: 400.0 mg/kg/injection, schedule: Q01DX009 (ip), vehicle: gum acacia 105 % of control | dose: 400.0 mg/kg/injection, schedule: Q04DX003 (ip), vehicle: gum acacia 108 % of control

C=CCNC(=O)Oc1cccc(NC(=O)OCC=C)c1
inactive: dose: 100.0 mg/kg/injection, schedule: Q04DX003 (ip), vehicle: saline with Tween-80 96 % of control | dose: 200.0 mg/kg/injection, schedule: Q04DX003 (ip), vehicle: saline with Tween-80 96 % of control | dose: 400.0 mg/kg/injection, schedule: Q04DX003 (ip), vehicle: saline with Tween-80 102 % of control

O=C1CC2CC1C1C(=O)OC(=O)C21 (stereo not drawn)
inactive: dose: 75.0 mg/kg/injection, schedule: Q01DX001 (ip), vehicle: acetone 91 % of control | dose: 150.0 mg/kg/injection, schedule: Q01DX001 (ip), vehicle: acetone 104 % of control | dose: 300.0 mg/kg/injection, schedule: Q01DX001 (ip), vehicle: acetone 98 % of control

C/C=C/C=C/C=N/N=C(N)N
inactive: dose: 15.0 mg/kg/injection, schedule: Q01DX Z (ip), vehicle: carboxymethylcellulose (CMC) 97 % of control | dose: 30.0 mg/kg/injection, schedule: Q01DX Z (oral), vehicle: carboxymethylcellulose (CMC) 109 % of control | dose: 60.0 mg/kg/injection, schedule: Q01DX Z (oral), vehicle: carboxymethylcellulose (CMC) 103 % of control | dose: 120.0 mg/kg/injection, schedule: Q01DX Z (oral), vehicle: carboxymethylcellulose (CMC) 103 % of control and 112 % of control | dose: 240.0 mg/kg/injection, schedule: Q01DX Z (oral), vehicle: carboxymethylcellulose (CMC) 102 % of control and 107 % of control

O=C1NC(=O)/C(=C\c2ccc3c(c2)OCO3)S1
inactive: dose: 2.5 mg/kg/injection, schedule: Q01DX009 (ip), vehicle: saline with Tween-80 96 % of control | dose: 5.0 mg/kg/injection, schedule: Q01DX009 (ip), vehicle: saline with Tween-80 91 % of control | dose: 10.0 mg/kg/injection, schedule: Q01DX009 (ip), vehicle: saline with Tween-80 89 % of control

COc1cc2c(cc1OC)CN1CCC(=O)CC1C2 (stereo not drawn)
inactive: dose: 100.0 mg/kg/injection, schedule: Q01DX001 (ip), vehicle: saline with Tween-80 107 % of control | dose: 200.0 mg/kg/injection, schedule: Q01DX001 (ip), vehicle: saline with Tween-80 102 % of control | dose: 400.0 mg/kg/injection, schedule: Q01DX001 (ip), vehicle: saline with Tween-80 106 % of control

ClC1C2CC3C(C2)C13 (stereo not drawn)
inactive: [12] 95 % of control | [13] 95 % of control | [14] 95 % of control

C[n+]1cccc(SC2CCC3CC4CC3C2C4)c1 (stereo not drawn)
inactive: dose: 50.0 mg/kg/injection, schedule: Q01DX009 (ip), vehicle: saline with Tween-80 91 % of control

Cn1c(O)c(O)c(=O)n(C)c1=O
inactive: dose: 50.0 mg/kg/injection, schedule: Q01DX009 (ip), vehicle: Klucel (hydroxypropylcellulose) (HPC) 101 % of control | [1] 98 % of control | [4] 88 % of control

COC1OC2COC(c3ccccc3)OC2C2C1N2C#N (stereo not drawn)
inactive: dose: 25.0 mg/kg/injection, schedule: Q01DX001 (ip), vehicle: Klucel (hydroxypropylcellulose) (HPC) 100 % of control | dose: 50.0 mg/kg/injection, schedule: Q01DX001 (ip), vehicle: Klucel (hydroxypropylcellulose) (HPC) 93 % of control | dose: 100.0 mg/kg/injection, schedule: Q01DX001 (ip), vehicle: Klucel (hydroxypropylcellulose) (HPC) 100 % of control

C[C@H]1C[C@H]2[C@@H]3CC[C@](O)(C(=O)CF)[C@@]3(C)C[C@H](O)[C@]2(F)[C@@]2(C)C=CC(=O)C=C12
inactive: dose: 50.0 mg/kg/injection, schedule: Q01DX001 (ip), vehicle: carboxymethylcellulose (CMC) 105 % of control | [12] 113 % of control | [13] 113 % of control | [14] 113 % of control
